How the values were obtained:
[1] = test system: Bifidobacterium longum (BI-05, DGCC 9917); test: Bacterial growth on sialylated glycans; assay type: cell-based; conditions: B. longum 9917; substrate 10 g/L in MRS-medium; average of 3 replicates
[2] = test system: Bifidobacterium longum infantis (DGCC 233); test: Bacterial growth on sialylated glycans; assay type: cell-based; conditions: B. infantis 233; for Area under the growth curve: substrate 10 g/L in MRS-medium, average of 3 replicates
[3] = test system: Lactobacillus acidophilus (NCFM, ATCC 700396); test: Bacterial growth on sialylated glycans; assay type: cell-based; conditions: L. acidophilus; substrate 10 g/L in MRS-medium; average of 3 replicates
[4] = test system: group of probiotic strains; test: Bacterial growth on sialylated glycans, probiotic strains as a group; assay type: cell-based
[5] = test system: Bifidobacterium longum infantis (DGCC 2238); test: Bacterial growth on sialylated glycans; assay type: cell-based; conditions: B. infantis 2238; substrate 10 g/L in MRS-medium; average of 3 replicates
[6] = test system: Bifidobacterium longum longum (DGCC 232); test: Bacterial growth on sialylated glycans; assay type: cell-based; conditions: B. longum 232; for Area under the growth curve: substrate 10 g/L in MRS-medium, average of 3 replicates
[7] = test system: Clostridium perfringens (ATCC 13124); assay type: cell-based; conditions: C. perfringens; substrate 10 g/L in MRS-medium; average of 3 replicates
[8] = test system: Bifidobacterium lactis (HN019, DGCC2013); test: Bacterial growth on sialylated glycans; assay type: cell-based; conditions: B. lactis; substrate 10 g/L in MRS-medium; average of 3 replicates
[9] = test system: Bifidobacterium longum infantis (DGCC 1497); test: Bacterial growth on sialylated glycans; assay type: cell-based; conditions: B. infantis 1497; for Area under the growth curve: substrate 10 g/L in MRS-medium, average of 3 replicates
[10] = Trans-sialidase activity assay (fluorescence-based); assay type: biochemical; conditions: for trans-sialidase activity relative to Tr6 parent (product formation, FIG. 4): mutants from shake flask cultures, cGMP donor, MU-Gal acceptor
Experimental: The invention provides a method for assaying the mutant trans-sialidase of the invention, that may for example be obtained by recombinant expression. Example 2.1 describes a fluorescence-based assay employing cGMP-bound sialic acid (for example 1 mM) as donor substrate and methylumbelliferyl-β-D-galactopyranoside (MU-Gal) as the acceptor (for example 0.5 mM), where the reaction is performed in a 50 mM phosphate-citrate (pH 6) at 30° C.
Trans-sialidase activity was assayed as described previously but with the following modifications. Reactions were performed in 50 mM phosphate-citrate (pH 6) at 30° C. using 2.9 μg/mL enzyme. The assay employed 1 mM cGMP-bound sialic acid as donor substrate and MU-Gal as the acceptor. MU-Gal at 0.5 mM was the highest final concentration to be tested due to its low solubility in aqueous solution. A solution of 87 mM MU-Gal in DMSO was diluted to 2 mM in 50 mM phosphate-citrate buffer (pH 6) immediately before preparing the reactions. When assaying crude enzyme preparations from P. pastoris, a background signal was observed, and attributed to cleavage of MU-Gal by endogenous β-galactosidase. This background signal could be removed by washing the column eight times with 440 μL of 5 mM HCl after sample application without desorption of the sialylated product and this was therefore done routinely.
To assess the performance of the mutant enzymes, they were produced by recombinant expression in P. pastoris, transformed with the respective mutant gene, by growth in shake flask cultures. The trans-sialidase activity of the expressed mutant enzymes was measured with a fluorescence-based assay using cGMP as sialic acid donor and methylumbelliferyl-β-D-galactopyranoside (MU-Gal) as acceptor (FIG. 4). As the detected product is a measure of both the trans-sialidase activity (product formation) and hydrolase activity (product degradation) the assay provides an effective screen for mutants having a higher trans-sialidase to hydrolase activity ratio.

[11] = Sialidase (hydrolase) activity assay; assay type: biochemical; conditions: substrate pNP-Neu5Ac; compared with Tr6
Experimental: Sialidase activity was measured in a reaction containing 50 mM phosphate-citrate buffer (pH 7), 0.75 mM pNP-NeuAc and 3 μg/mL sialidase enzyme. Reactions were initiated by addition of substrate and followed spectrophotometrically at 410 nm at 30° C. pH 7 was chosen to enable detection of released pNP in a continuous assay. Reaction rates were normalized as % of the activity of the Tr6 parent enzyme. For measurement of hydrolysis of natural substrates, the assay was performed with either 1 mM 3′-sialyllactose, 1 mM 6′-sialyllactose or 1 mM cGMP-bound sialic acid in 50 mM phosphate-citrate buffer (pH 5) using 1 μg/mL enzyme. Reactions were started by addition of enzyme and stopped by adding H2SO4 to 45 mM final concentration. Quantification of free sialic acid was performed using a 2-thiobarbituric acid assay with the modification that butanol extraction was substituted with mixing with dimethyl sulfoxide (DMSO).

| Molecule | Area under the growth curve [1] [OD600 × min] | Area under the growth curve [2] [OD600 × min] | Area under the growth curve [3] [OD600 × min] | growth promotion (in words) [4] | Area under the growth curve [5] [OD600 × min] | Area under the growth curve [6] [OD600 × min] | growth promotion (in words) [2] | Area under the growth curve [7] [OD600 × min] | Area under the growth curve [8] [OD600 × min] | growth promotion (in words) [6] | growth promotion (in words) [9] | Area under the growth curve [9] [OD600 × min] | trans-sialidase activity relative to Tr6 parent (product formation, FIG. 4) [10] | trans-sialylated product yield (maximum product formation, FIG. 5B) ([10]; purified enzyme from 5 L fermentor, time course, compared with Tr6) | hydrolase activity (FIG. 5A) [11] |
| --- | --- | --- | --- | --- | --- | --- | --- | --- | --- | --- | --- | --- | --- | --- | --- |
| CC(=O)NC1C(O)CC(OC2C(O)C(CO)OC(OCC3OC(O)C(O)C(O)C3O)C2O)(C(=O)O)OC1C(O)C(O)CO (stereo not drawn) [S-melibiose, SA-α-Gal-1,6-α-Glc] | 70 ± 8 | 14 ± 6 | 192 ± 4 | did not appear to promote growth | 302 ± 2 | 104 ± 17 | – | – | – | – | – | – | – | – | – |
| SA-α-Fuc [S-fucose] | 114 ± 15 | 71 ± 6 | 188 ± 18 | – | 285 ± 15 | 192 ± 20 | promoted growth | 811 ± 48 | 192 ± 27 | promoted growth | promoted growth | 149 ± 2 | – | – | – |
| SA-α-Gal-1,4-β-Fru [S-lactulose] | 34 ± 14 | 109 ± 20 | 128 ± 2 | – | 269 ± 20 | 134 ± 19 | – | 541 ± 17 | 122 ± 18 | – | – | 34 ± 2 | – | – | – |
| SA-α-Glc-1,4-α-Glc [S-maltose] | 101 ± 6 | 30 ± 4 | 193 ± 12 | did not appear to promote growth | 158 ± 24 | 122 ± 31 | – | 844 ± 99 | 102 ± 8 | – | – | – | – | – | – |
| Tr6 P98A: Tr6 mutant, reversion of mutation P98A (protein) LAPGSSRVELFKRKNSTVPFEESNGTIRERVVHSFRLPTIVNVDGVMVAIADARYETSFDNSFIETAVKYSVDDGATWNTQIAIKNSRASSVSRVVDATVIVKGNKLYILVGSFNKTRNYWTQHRDGSDWEPLLVVGEVTKSAANGKTTATISWGKPVSLKPLFPAEFDGILTKEFVGGVGAAIVASNGNLVYPVQIADMGGRVFTKIMYSEDDGNTWKFAEGRSKFGCSEPAVLEWEGKLIINNRVDYNRRLVYESSDMGKTWVEALGTLSHVWTNSPTSNQPDCQSSFVAVTIEGKRVMLFTHPLNLKGRWMRDRLHLWMTDNQRIFDVGQISIGDENSGYSSVLYKDDKLYSLHEINTNDVYSLVFVRLIGELQLMKSVVRTWKEEDNHLASICTPVVPATPPSKGACGAAVPTAGLVGFLSHSANGSVWEDVYRCVDANVANAERVPNGLKFNGVGGGAVWPVARQGQTRRYQFANYRFTLVATVTIDELPKGTSPLLGAGLEGPGDAKLLGLSYDKNRQWRPLYGAAPASPTGSWELHKKYHVVLTMADRQGSVYVDGQPLAGSGNTVVRGATLPDISHFYIGGPRSKGAPTDSRVTVTNVVLYNRRLNSSEIRTLFLSQDMIGTDGGAGTAA | – | – | – | – | – | – | – | – | – | – | – | – | reduction in trans-sialidase activity | – | – |
| Tr6 D363E: Tr6 sialidase mutant with amino acid change D363E (protein) LAPGSSRVELFKRKNSTVPFEESNGTIRERVVHSFRLPTIVNVDGVMVAIADARYETSFDNSFIETAVKYSVDDGATWNTQIAIKNSRASSVSRVVDPTVIVKGNKLYILVGSFNKTRNYWTQHRDGSDWEPLLVVGEVTKSAANGKTTATISWGKPVSLKPLFPAEFDGILTKEFVGGVGAAIVASNGNLVYPVQIADMGGRVFTKIMYSEDDGNTWKFAEGRSKFGCSEPAVLEWEGKLIINNRVDYNRRLVYESSDMGKTWVEALGTLSHVWTNSPTSNQPDCQSSFVAVTIEGKRVMLFTHPLNLKGRWMRDRLHLWMTDNQRIFDVGQISIGDENSGYSSVLYKDDKLYSLHEINTNEVYSLVFVRLIGELQLMKSVVRTWKEEDNHLASICTPVVPATPPSKGACGAAVPTAGLVGFLSHSANGSVWEDVYRCVDANVANAERVPNGLKFNGVGGGAVWPVARQGQTRRYQFANYRFTLVATVTIDELPKGTSPLLGAGLEGPGDAKLLGLSYDKNRQWRPLYGAAPASPTGSWELHKKYHVVLTMADRQGSVYVDGQPLAGSGNTVVRGATLPDISHFYIGGPRSKGAPTDSRVTVTNVVLYNRRLNSSEIRTLFLSQDMIGTDGGAGTAA | – | – | – | – | – | – | – | – | – | – | – | – | enhanced trans-sialidase activity | similarly low product formation profile as Tr6 | reduced hydrolase activity |
| Tr6 Y249G: Tr6 mutant, reversion of mutation Y249G (protein) LAPGSSRVELFKRKNSTVPFEESNGTIRERVVHSFRLPTIVNVDGVMVAIADARYETSFDNSFIETAVKYSVDDGATWNTQIAIKNSRASSVSRVVDPTVIVKGNKLYILVGSFNKTRNYWTQHRDGSDWEPLLVVGEVTKSAANGKTTATISWGKPVSLKPLFPAEFDGILTKEFVGGVGAAIVASNGNLVYPVQIADMGGRVFTKIMYSEDDGNTWKFAEGRSKFGCSEPAVLEWEGKLIINNRVDGNRRLVYESSDMGKTWVEALGTLSHVWTNSPTSNQPDCQSSFVAVTIEGKRVMLFTHPLNLKGRWMRDRLHLWMTDNQRIFDVGQISIGDENSGYSSVLYKDDKLYSLHEINTNDVYSLVFVRLIGELQLMKSVVRTWKEEDNHLASICTPVVPATPPSKGACGAAVPTAGLVGFLSHSANGSVWEDVYRCVDANVANAERVPNGLKFNGVGGGAVWPVARQGQTRRYQFANYRFTLVATVTIDELPKGTSPLLGAGLEGPGDAKLLGLSYDKNRQWRPLYGAAPASPTGSWELHKKYHVVLTMADRQGSVYVDGQPLAGSGNTVVRGATLPDISHFYIGGPRSKGAPTDSRVTVTNVVLYNRRLNSSEIRTLFLSQDMIGTDGGAGTAA | – | – | – | – | – | – | – | – | – | – | – | – | reduction in trans-sialidase activity | – | – |

Source: patent US10533164B2, “Mutant sialidase having trans-sialidase activity for use in production of sialylated glycans” (priority 2013, dated 2020)
